Laboratory results: patent publication US20050059014A1, “Analytical platform and detection method with the analytes to be determined in a sample as immobilized specific binding partners” (priority 2002, published 2005)

Test system: Phospho-p44/42 MAP kinase (pErk2)
Assay: Cell lysate array on evanescent field sensor platform, detection with antibody A3
Format: cell-based, human
Conditions: Jurkat cells, staurosporine 10 μM, 180 min
Experimental: Human T-cell cultures (Jurkat, DMZ # ACC282) are utilized for the detection of biologically relevant protein analytes in “nature-identical” samples. These cells are cultivated at 37° C. in a solution containing RPMI 1640, 10 % FCS (fetal calf serum), 2 mM glutamine, 50 U/ml penicillin, 50 μg/ml streptamycine (cell density at about 0.5−×10^6−1.0×10^6 cells/ml).
Then the cell cultures treated as described above and the untreated cell cultures, respectively, are cooled to 4° C. and formed to pellets by centrifugation at a centrifugal force of 350×g (number of cells at about 10^7).The cells here are simply separated from the medium, without damage to the cells. […]
The fluorescence signals from the various arrays of measurement areas undergo automatic sequential measurement using a ZeptoREADER™ (Zeptosens AG, Benkenstrasse 254, CH-4108 Witterswil). […] Then, for each array, images of the fluorescence signals from the corresponding array are generated, wherein the user can select different exposure times and the number of images to be generated. In the case of measurements for the present example, the excitation wavelength is 633 nm, and the detection of the fluorescence light at the fluorescence wavelength of Cy5 is performed using a cooled camera, an interference filter (transmission 670 nm ±20 nm) for suppression of scattered light being positioned in front of the lens of the camera. […]

CN[C@@H]1C[C@H]2O[C@@](C)([C@@H]1OC)n1c3ccccc3c3c4c(c5c6ccccc6n2c5c31)C(=O)NC4 [staurosporin, staurosporine]
pErk2 signal of the nonstimulated control sample compared with the sample treated with staurosporin: only slightly higher
